Results taken from the supplement of paper PMC10307832.

Key:
Assay in all cases: relative viability (nuclei count vs DMSO), 5 days (fraction); higher = more cells survive
Pictilisib + Crizotinib = compound: CS(=O)(=O)N1CCN(Cc2cc3nc(-c4cccc5[nH]ncc45)nc(N4CCOCC4)c3s2)CC1 [Pictilisib] + C[C@@H](Oc1cc(-c2cnn(C3CCNCC3)c2)cnc1N)c1c(Cl)ccc(F)c1Cl [Crizotinib] (partner 1 µM)
Outline: (§1)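 Values are medians from duplicate plates. Each reflects relative viability, defined as the nuclei count of treated wells over that of vehicle wells. Lung cancer cell lines in 1536-well plates were pin-tool dosed one day after seeding with one drug alone or with a fixed anchor-drug dose plus five library-drug doses (not always all listed) in √10 steps, then fixed, stained and imaged at 4× after 5 days.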

MK-2206 + Olaparib = compound: NC1(c2ccc(-c3nc4ccn5c(=O)[nH]nc5c4cc3-c3ccccc3)cc2)CCC1 [MK-2206] + O=C(c1cc(Cc2n[nH]c(=O)c3ccccc23)ccc1F)N1CCN(C(=O)C2CC2)CC1 [Olaparib] (partner 8 µM)
Outline: as §1

MK-2206 + Palbociclib = compound: NC1(c2ccc(-c3nc4ccn5c(=O)[nH]nc5c4cc3-c3ccccc3)cc2)CCC1 [MK-2206] + CC(=O)c1c(C)c2cnc(Nc3ccc(N4CCNCC4)cn3)nc2n(C2CCCC2)c1=O [Palbociclib] (partner 0.5 µM)
Outline: as §1

MK-2206 + Pictilisib = compound: NC1(c2ccc(-c3nc4ccn5c(=O)[nH]nc5c4cc3-c3ccccc3)cc2)CCC1 [MK-2206] + CS(=O)(=O)N1CCN(Cc2cc3nc(-c4cccc5[nH]ncc45)nc(N4CCOCC4)c3s2)CC1 [Pictilisib] (partner 1 µM)
Outline: as §1

MK-2206 + Dasatinib = compound: NC1(c2ccc(-c3nc4ccn5c(=O)[nH]nc5c4cc3-c3ccccc3)cc2)CCC1 [MK-2206] + Cc1nc(Nc2ncc(C(=O)Nc3c(C)cccc3Cl)s2)cc(N2CCN(CCO)CC2)n1 [Dasatinib] (partner 0.075 µM)
Outline: as §1

Row | Cell Line | relative viability (Pictilisib + Crizotinib; first compound 0.02 µM) | relative viability (Pictilisib + Crizotinib; first compound 0.06325 µM) | relative viability (Pictilisib + Crizotinib; first compound 0.6325 µM) | relative viability (Pictilisib + Crizotinib; first compound 2 µM) | relative viability (MK-2206 + Olaparib; first compound 0.01 µM) | relative viability (MK-2206 + Olaparib; first compound 0.03162 µM) | relative viability (MK-2206 + Olaparib; first compound 0.3162 µM) | relative viability (MK-2206 + Olaparib; first compound 1 µM) | relative viability (MK-2206 + Palbociclib; first compound 0.01 µM) | relative viability (MK-2206 + Palbociclib; first compound 0.03162 µM) | relative viability (MK-2206 + Palbociclib; first compound 0.3162 µM) | relative viability (MK-2206 + Palbociclib; first compound 1 µM) | relative viability (MK-2206 + Pictilisib; first compound 0.01 µM) | relative viability (MK-2206 + Pictilisib; first compound 0.03162 µM) | relative viability (MK-2206 + Pictilisib; first compound 0.3162 µM) | relative viability (MK-2206 + Pictilisib; first compound 1 µM) | relative viability (MK-2206 + Dasatinib; first compound 0.01 µM) | relative viability (MK-2206 + Dasatinib; first compound 0.03162 µM) | relative viability (MK-2206 + Dasatinib; first compound 0.3162 µM) | relative viability (MK-2206 + Dasatinib; first compound 1 µM)
1 | NCI-H520 | 0.826 | 0.884 | 0.504 | 0.197 | 0.359 | 0.331 | 0.228 | 0.195 | 0.215 | 0.218 | 0.153 | 0.149 | 0.275 | 0.228 | 0.276 | 0.223 | 0.179 | 0.178 | 0.189 | 0.18
2 | NCI-H647 | 1.16 | 1.18 | 0.884 | 0.524 | 0.568 | 0.559 | 0.662 | 0.388 | 0.389 | 0.403 | 0.349 | 0.264 | 0.455 | 0.452 | 0.354 | 0.273 | 0.17 | 0.188 | 0.154 | 0.156
3 | NCI-H650 | 0.762 | 0.712 | 0.629 | 0.642 | 0.4 | 0.362 | 0.383 | 0.391 | 0.292 | 0.328 | 0.311 | 0.309 | 0.804 | 0.901 | 0.87 | 0.81 | 0.448 | 0.442 | 0.453 | 0.326
4 | NCI-H661 |  | 1.01 | 1.24 | 0.729 | 0.768 | 0.751 | 0.763 | 0.738 | 0.428 | 0.42 | 0.354 | 0.349 | 0.431 | 0.422 | 0.511 | 0.312 | 0.898 | 0.907 | 0.856 | 0.949
5 | NCI-H727 | 0.934 | 0.912 | 0.76 | 0.401 | 0.696 | 0.674 | 0.716 | 0.675 | 0.775 | 0.658 | 0.638 | 0.625 | 0.47 | 0.413 | 0.36 | 0.254 | 0.408 | 0.328 | 0.394 | 0.433
6 | NCI-H838 | 0.871 | 0.795 | 0.76 | 0.497 | 0.768 | 0.857 | 0.767 | 0.685 | 0.223 | 0.226 | 0.203 | 0.193 | 0.517 | 0.436 | 0.464 | 0.42 | 0.282 | 0.279 | 0.288 | 0.268
7 | NCI-H1355 | 1.1 | 0.983 | 0.876 | 0.606 | 0.767 | 0.829 | 0.672 | 0.761 | 0.39 | 0.392 | 0.362 | 0.329 | 0.486 | 0.475 | 0.454 | 0.4 | 0.734 | 0.7 | 0.701 | 0.432
8 | NCI-H1437 | 0.941 | 0.952 | 1.03 | 0.652 | 0.632 | 0.643 | 0.698 | 0.653 | 0.304 | 0.332 | 0.336 | 0.286 | 0.472 | 0.399 | 0.366 | 0.263 | 0.425 | 0.424 | 0.412 | 0.398
9 | NCI-H1650 | 1.02 | 1.1 | 1.2 | 0.395 | 0.72 | 0.864 | 0.969 | 0.957 | 0.291 | 0.334 | 0.331 | 0.356 | 0.549 | 0.566 | 0.476 | 0.56 | 0.312 | 0.273 | 0.215 | 0.244
10 | NCI-H1651 | 0.855 | 0.863 | 0.84 | 0.683 | 0.178 | 0.154 | 0.174 | 0.181 | 0.506 | 0.536 | 0.486 | 0.482 | 0.672 | 0.655 | 0.632 | 0.408 | 0.386 | 0.448 | 0.478 | 0.405
11 | NCI-H1666 | 1.07 | 1.05 | 0.815 | 0.491 | 0.702 | 0.794 | 0.802 | 0.774 | 0.63 | 0.675 | 0.652 | 0.586 | 0.403 | 0.414 | 0.405 | 0.403 | 0.751 | 0.838 | 0.818 | 0.744
12 | NCI-H1734 | 0.739 | 0.648 | 0.43 | 0.296 | 0.63 | 0.667 | 0.648 | 0.507 | 0.238 | 0.369 | 0.28 | 0.264 | 0.475 | 0.463 | 0.329 | 0.393 | 0.501 | 0.449 | 0.408 | 0.387
13 | NCI-H1755 | 0.848 | 0.829 | 0.827 | 0.546 | 0.875 | 0.929 | 0.901 | 0.825 | 0.461 | 0.419 | 0.388 | 0.43 | 0.47 | 0.48 | 0.36 | 0.4 | 0.443 | 0.424 | 0.406 | 0.35
